Source: US6444819B1, “Benzylpiperazinyl and piperidinyl ethanone derivatives: dopamine receptor subtype specific ligands” (Neurogen Corporation, priority 1998, dated 2002)

Molecular target: T1, human D4 receptors (Homo sapiens, UniProt P21917)
T1 construct: expressed in transfected cells; host or cells: CHO cells
T1 sequence (P21917 1-419): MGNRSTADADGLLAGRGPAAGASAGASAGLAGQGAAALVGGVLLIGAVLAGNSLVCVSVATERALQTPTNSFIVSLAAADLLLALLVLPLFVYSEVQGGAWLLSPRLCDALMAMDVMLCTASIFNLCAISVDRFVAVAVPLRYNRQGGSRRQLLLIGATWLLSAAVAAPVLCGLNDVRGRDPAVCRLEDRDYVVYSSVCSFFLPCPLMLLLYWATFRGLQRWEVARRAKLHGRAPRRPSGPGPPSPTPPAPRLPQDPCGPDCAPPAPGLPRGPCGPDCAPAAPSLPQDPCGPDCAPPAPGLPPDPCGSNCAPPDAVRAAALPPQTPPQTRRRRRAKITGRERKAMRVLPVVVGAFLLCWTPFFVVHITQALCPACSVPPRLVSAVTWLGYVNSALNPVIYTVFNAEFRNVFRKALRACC
Assay: D4 receptor binding assay (3H-YM 09151-2 displacement)
Settings: CHO cell membranes with cloned human D4 receptor; 0.5 nM 3H-YM 09151-2
Description: The cloned membranes are homogenized in 100 volumes (wt/vol) of 0.05 M Tris-HCl buffer at 4° C. and pH 7.4 containing 120 mM NaCl, 1 mM EDTA and 5 mM MgCl2. The samples were centrifuged at 48,000×g then re-suspended and re-homogenized. The final tissue sample is kept frozen until use. The tissue is resuspended 1:20 (wt/vol) in 0.05 M Tris-HCl buffer containing 120 mM NaCl prior to use.
Non-specific binding is defined as that binding found in the presence of 1 mM spiperone; without further additions, nonspecific binding is less than 20% of total binding.

Compound: CCCCN(C(=O)CN1CCN(Cc2ccc(Cl)cc2)CC1)c1ccccc1 [Compound 2, N-butyl-2-(4-(4-chlorobenzyl)piperazinyl)-N-phenylethanamide]
- Ki: 0.154 µM
